Results taken from US10053485B2, “Cytotoxic agents that preferentially target leukemia inhibitory factor (LIF) for the treatment of malignancies and as new contraceptive agents” (Evestra, Inc., priority 2015, dated 2018).

Columns and labels:
M14 = assay: NCI-60 screen, Melanoma panel; assay type: cell-based; conditions: Homo sapiens, M14, 48 h
NCI-H460 = assay: NCI-60 screen, Non-Small Cell Lung Cancer panel; assay type: cell-based; conditions: Homo sapiens, NCI-H460, 48 h
OVCAR-5 = assay: NCI-60 screen, Ovarian Cancer panel; assay type: cell-based; conditions: Homo sapiens, OVCAR-5, 48 h
[1] = tested on: MDA-MB-231 (TNBC) Xenograft; assay: Tumor xenograft study, MDA-MB-231; assay type: in vivo, mice
Description: (§1) Uniform suspensions of human breast cancer MDA-MB-231 and human ovarian cancer IGROV1 cells (2×10^6) in 100 μL (0.02 carboxymethyl cellulose in phosphate buffered saline) were injected subcutaneously into the right and left flanks of 4- to 5-week-old female athymic nude mice (Charles River Laboratories). After 10 days, when the tumor […] reaches 100 mm^3, the mice were randomly allocated to 3 groups of each containing 6 animals. […] All drug was suspended in PBS followed by sonication (15 seconds with an intermittent interval of 5 seconds) for 1 minute. Tumors were allowed to reach palpability before drug intervention. Tumor size was measured every 3 days using digital Vernier Calipers and tumor volume was calculated using the ellipsoid formula [D×(d2)]/2, where D is the large diameter of the tumor and d represents the small diameter. On day 31, the mice were euthanized and tumors were harvested for protein and gene expression studies. […] FIG. 6B depicts a graph of tumor volume vs. time for the administration of EC300 at 2.5 mg/kg twice weekly in the MDA-MB-231 (TNBC) Xenograft. […] FIG. 7 depicts a graph of tumor volume vs. time for the administration of EC300 at 5 mg/kg 5 days per week in the IGROV1 (Ovarian) Xenograft. […] STAT3 phosphorylation is reduced in tumors that underwent treatment compared to control which is an indication of LIF downstream target.

COLO 205 = assay: NCI-60 screen, Colon Cancer panel; assay type: cell-based; conditions: Homo sapiens, COLO 205, 48 h
NCI/ADR-RES = assay: NCI-60 screen, Ovarian Cancer panel; assay type: cell-based; conditions: Homo sapiens, 48 h
T47D breast cancer cells = assay: Soft agar colony formation assay; assay type: cell-based, human
Description: Colonies of cancer cells formed in soft agar in the presence and absence of the testing compounds is a standard assay to interpret in-vitro tumorigenic potential in the basal layer. Agar was prepared by mixing 1% DNA grade agar melted and cooled to 40° C. with an equal volume of (2×) Dulbecco's Modified Eagle's Medium (DMEM) to obtain 0.5% agar that was dispersed in a 6-well plate and allowed to solidify. A total of 0.6% agar was prepared in RPMI medium and mixed together with T47D cells (0.5×10^6 cells/mL) and immediately plated on the basal layer in the presence or absence of testing compounds. The cultures were incubated at 37° C. in a CO2 incubator for 2 weeks, and colonies were stained with 0.005% crystal violet and observed under a light microscope.

[2] = tested on: IGROV1 (Ovarian) Xenograft; assay: Tumor xenograft study, IGROV1; assay type: in vivo, mice
Description: as §1

HT29 = assay: NCI-60 screen, Colon Cancer panel; assay type: cell-based; conditions: Homo sapiens, HT-29, 48 h
[3] = read-out: GI50 (log10GI50) (converted)
[4] = read-out: LC50 (log10LC50) (converted)

In the case of `C#CC(F)(F)[C@]1(O)CCC2C3CCC4=CC(=O)CCC4=C3C(c3ccc(C4CC4)cc3)C[C@@]21C` (stereo partly drawn) [EC330, 17α-(1,1-difluoro-2-propyn-1-yl)-17β-hydroxy-11β-[4-p-(cyclopropyl)phenyl]estra-4,9-dien-3-one], the GI50 (M14; [3]) is reported as 2750 nM, the CC50 (M14; [4]) is reported as over 100000 nM and the GI50 (NCI-H460; [3]) is reported as 2690 nM. For the same compound, the CC50 (NCI-H460; [4]) was over 100000 nM, the GI50 (OVCAR-5; [3]) was 1070 nM and the CC50 (OVCAR-5; [4]) was over 100000 nM. The “apoptosis in xenograft tumors” value ([1]; MDA-MB-231 xenograft tumors, FIG. 9) was “induced apoptosis dose dependently”, the tumor growth ([1]; human triple negative breast cancer (TNBC) model) was “significantly reduced” and the “STAT3 phosphorylation in tumors” value ([1]; treated vs. control, 'It is believed') was “reduced”. For the same compound, the GI50 (COLO 205; [3]) was 794 nM, the CC50 (COLO 205; [4]) was 8910 nM and the GI50 (NCI/ADR-RES; [3]) was 25.7 nM. For the same compound, the CC50 (NCI/ADR-RES; [4]) was over 100000 nM, the “inhibition in the number of colonies formed” value (T47D breast cancer cells; 100 nM concentration, in words) was “complete inhibition” and the inhibition at 0.005 µM (T47D breast cancer cells; Homo sapiens, T47D, 5 nM concentration, read-out: inhibition in the number of colonies formed) was 50%. For the same compound, the antitumor activity ([2]; 5 mg/kg (5 days per week), 4 weeks, intraperitoneally) was “potent antitumor activity”, the “apoptosis in xenograft tumors” value ([2]; IGR-OV1 xenograft tumors, FIG. 8) was “induced apoptosis dose dependently” and the tumor growth ([2]; ovarian cancer model) was “significantly reduced”. The “STAT3 phosphorylation in tumors” value ([2]; treated vs. control) was “reduced”, the GI50 (HT29; [3]) was under 10 nM and the CC50 (HT29; [4]) was 692 nM.
